# Source: ChEMBL document CHEMBL5050850, “Compositions and methods of using the same for treatment of neurodegenerative and mitochondrial disease” (2020)
# How the values were obtained:
# [1] = Induction of mitophagy in human HeLa MKYP cells treated with FCCP/oligomycin for 6 hrs and measured by FACS analysis; assay type: functional, cell-based
# HeLa [2] = experiment: Cytotoxicity against human HeLa MKYP cells assessed as percentage of DAPI-positive cells at 50 uM and measured by DAPI staining method; assay type: toxicity, cell-based
# [3] = Induction of mitophagy in human HeLa MKYP cells treated at 6.3 uM with FCCP/oligomycin for 6 hrs and measured by FACS analysis relative to control; assay type: functional
# HeLa [4] = experiment: Cytotoxicity against human HeLa MKYP cells assessed as cell death at 25 uM treated with FCCP/oliogmycin and measured DAPI staining method assay relative to control; assay type: toxicity, cell-based
# HeLa [5] = experiment: Cytotoxicity against human HeLa MKYP cells assessed as cell death at 25 uM and measured DAPI staining method assay relative to control; assay type: toxicity, cell-based
SMILES,EC50 [1] [µM],Activity (HeLa [2]) [%],Activity [3] [%],"Activity ([3]; 6 h, 6.3 µM) [%]",Activity (HeLa [4]) [%],Activity (HeLa [5]) [%]
FC(F)(F)c1cc2c(NC3CCN(Cc4ccccc4)CC3)ncnc2[nH]1,21.4,43.9,–,–,–,–
CCCCNc1ncnc2[nH]c(C)cc12,–,15.4,43.4,–,–,–
FC(F)(F)c1cc2c(NC3CCc4ccccc43)ncnc2[nH]1 (stereo in doubt; 18),–,1.7,–,14.3,–,–
O=S1(=O)Cc2ccccc2C(Nc2ncnc3[nH]c(C(F)(F)F)cc23)C1 (stereo unspecified),> 50,13.2,–,–,–,–
O[C@@H]1Cc2ccccc2[C@@H]1Nc1ncnc2[nH]c(C(F)(F)F)cc12,9,35.6,–,–,35.6,5.5
c1ccc2c(c1)CC[C@H]2Nc1ncnc2[nH]cnc12,> 50,10.3,–,–,–,–
Cc1nc2c(N[C@@H](C)c3ccccc3)ncnc2[nH]1,4.6,31.9,–,–,–,–
CCCCNc1ncnc2[nH]c(C(F)(F)F)cc12,–,4.6,42.3,–,–,–
COc1ccc(CNc2ncnc3[nH]c(C(F)(F)F)cc23)c(OC)c1,2.08,42.6,–,–,–,–
CC(C)(Nc1ncnc2[nH]c(C(F)(F)F)cc12)c1ccccc1,–,5.6,17,–,–,–
FC(F)(F)c1cc2c(NCc3ccncn3)ncnc2[nH]1,–,1.5,–,–,–,–
OC[C@H](Nc1ncnc2[nH]cnc12)c1ccccc1,3.48,14.5,–,–,–,–
COc1ncccc1CNc1ncnc2[nH]c(C(F)(F)F)cc12,–,7.6,–,–,–,–
FC(F)(F)c1cc2c(NC3COc4ccccc43)ncnc2[nH]1 (stereo unspecified),–,39.7,52.5,–,–,–
c1ncc(CNc2ncnc3[nH]c(C4CC4)nc23)cn1,> 50,7.1,–,–,–,–
CN(C)[C@H]1CCc2ccccc2[C@@H]1Nc1ncnc2[nH]c(C(F)(F)F)cc12,0.81,79.3,–,–,79.29,4.33
c1ccc2c(c1)OCC[C@H]2Nc1ncnc2[nH]cnc12,> 50,16,–,–,–,–
c1coc(CNc2ncnc3[nH]cnc23)c1 [KINETIN],–,4.9,–,–,–,–
Fc1cccc(CNc2ncnc3[nH]c(C(F)(F)F)cc23)c1Cl,–,4.5,–,–,–,–
c1ccc2c(c1)OCC[C@H]2Nc1ncnc2[nH]c(C3CC3)cc12,1.98,17.3,–,–,17.3,7.26
C[C@@H](Nc1ncnc2[nH]c(C(F)(F)F)cc12)c1ccccc1,3.1,63.7,–,–,–,–
FC(F)(F)c1cc2c(NCc3cncnc3)ncnc2[nH]1,11.7,1.7,–,–,–,–
COc1ccc2c(c1)[C@@H](Nc1ncnc3[nH]c(C(F)(F)F)cc13)CCC2,4,3.2,–,–,3.18,1.18
C[C@@H](Nc1ncnc2[nH]c(C3CC3)nc12)c1ccccc1,> 50,12.3,–,–,–,–
C[C@@H](Nc1ncnc2[nH]cnc12)c1ccccc1,47.4,10.1,–,–,–,–
COc1cc(CNc2ncnc3[nH]c(C4CC4)nc23)ccn1,> 50,7.1,–,–,–,–
c1ccc(CCNc2ncnc3[nH]cnc23)cc1,2.26,19.7,–,–,–,–
FC(F)(F)c1cc2c(NC3COCc4ccccc43)ncnc2[nH]1 (stereo unspecified),> 50,42.9,–,–,–,–

# Second part, led by results:
EC50 [1] [µM],SMILES,Activity (HeLa [2]) [%],Activity [3] [%],"Activity ([3]; 6 h, 6.3 µM) [%]",Activity (HeLa [4]) [%],Activity (HeLa [5]) [%]
10.8,COc1ccccc1CNc1ncnc2nc[nH]c12,12.4,–,–,–,–
14.7,OC[C@H](Nc1ncnc2[nH]c(C(F)(F)F)cc12)c1ccccc1,30.4,–,–,–,–
0.02,C[C@H](Nc1ncnc2[nH]c(C(F)(F)F)cc12)c1ccccc1,90.8,–,–,–,–
> 50,OC[C@@H](Nc1ncnc2[nH]cnc12)c1ccccc1,8.9,–,–,–,–
4.38,c1ccc2c(c1)CC[C@@H]2Nc1ncnc2[nH]cnc12,16.2,–,–,–,–
1.6,CO[C@@H]1COc2ccccc2[C@@H]1Nc1ncnc2[nH]c(C(F)(F)F)cc12,12.1,–,–,12.11,3.4
> 50,CCCCNc1ncnc2[nH]c(C3CCC3)nc12,6.1,–,–,–,–
3.24,FC(F)(F)c1cc2c(NC3CCOc4ccccc43)ncnc2[nH]1 (stereo unspecified),22.3,–,–,–,–
18.8,CCC(Nc1ncnc2[nH]c(C(F)(F)F)cc12)c1cncnc1 (stereo unspecified),15.9,–,–,–,–
> 50,FC(F)(F)c1cc2c(NC3CCCc4ccccc43)ncnc2[nH]1 (racemic),27.1,–,–,–,–
> 50,C[C@@H](Nc1nccc2[nH]cnc12)c1ccccc1,7.6,–,–,–,–
14.9,FC(F)(F)c1cc2c(N[C@@H]3COc4ccccc43)ncnc2[nH]1,29.2,–,–,–,–
